Laboratory results as given in PubChem BioAssay AID328 (DTP/NCI, 2004).
Where “and” joins values, the source holds several entries; their conditions need not be identical. Equal values may be shown once. Inconclusive results and toxic doses are left out. Residues, ends and D or L forms follow the SMILES beside them.

System: BDF1 mice, P388 leukemia ip, median survival T/C
Assay: NCI In Vivo Anticancer Drug Screen. Data for tumor model P388 Leukemia (intraperitoneal) in B6D2F1 (BDF1) mice
Details: endpoint: median survival time, higher = longer survival
How it was run: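 Vehicle-dosed animals serve as the reference; survival of compound-dosed, tumour-implanted mice is divided by it.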

[1] = dose: 50.0 mg/kg/injection, schedule: Q01DX009 (ip), vehicle: saline
[2] = dose: 100.0 mg/kg/injection, schedule: Q01DX009 (ip), vehicle: saline
[3] = dose: 100.0 mg/kg/injection, schedule: Q04DX003 (ip), vehicle: saline
[4] = dose: 200.0 mg/kg/injection, schedule: Q04DX003 (ip), vehicle: saline
[5] = dose: 400.0 mg/kg/injection, schedule: Q04DX003 (ip), vehicle: saline
[6] = dose: 100.0 mg/kg/injection, schedule: Q01DX001 (ip), vehicle: Klucel (hydroxypropylcellulose) (HPC)
[7] = dose: 100.0 mg/kg/injection, schedule: Q01DX009 (ip), vehicle: Klucel (hydroxypropylcellulose) (HPC)
[8] = dose: 100.0 mg/kg/injection, schedule: Q04DX003 (ip), vehicle: Klucel (hydroxypropylcellulose) (HPC)
[9] = dose: 200.0 mg/kg/injection, schedule: Q01DX001 (ip), vehicle: Klucel (hydroxypropylcellulose) (HPC)
[10] = dose: 200.0 mg/kg/injection, schedule: Q01DX009 (ip), vehicle: Klucel (hydroxypropylcellulose) (HPC)
[11] = dose: 200.0 mg/kg/injection, schedule: Q04DX003 (ip), vehicle: Klucel (hydroxypropylcellulose) (HPC)
[12] = dose: 400.0 mg/kg/injection, schedule: Q01DX001 (ip), vehicle: Klucel (hydroxypropylcellulose) (HPC)
[13] = dose: 400.0 mg/kg/injection, schedule: Q04DX003 (ip), vehicle: Klucel (hydroxypropylcellulose) (HPC)
[14] = dose: 25.0 mg/kg/injection, schedule: Q01DX009 (ip), vehicle: Klucel (hydroxypropylcellulose) (HPC)
[15] = dose: 50.0 mg/kg/injection, schedule: Q01DX009 (ip), vehicle: Klucel (hydroxypropylcellulose) (HPC)
[16] = dose: 50.0 mg/kg/injection, schedule: Q01DX009 (ip), vehicle: saline with Tween-80
[17] = dose: 100.0 mg/kg/injection, schedule: Q01DX009 (ip), vehicle: saline with Tween-80
[18] = dose: 200.0 mg/kg/injection, schedule: Q01DX009 (ip), vehicle: saline
[19] = dose: 400.0 mg/kg/injection, schedule: Q01DX009 (ip), vehicle: saline
[20] = dose: 200.0 mg/kg/injection, schedule: Q01DX009 (ip), vehicle: saline with Tween-80
[21] = dose: 25.0 mg/kg/injection, schedule: Q01DX009 (ip), vehicle: saline with Tween-80
[22] = dose: 100.0 mg/kg/injection, schedule: Q04DX003 (ip), vehicle: saline with Tween-80
[23] = dose: 200.0 mg/kg/injection, schedule: Q04DX003 (ip), vehicle: saline with Tween-80
[24] = dose: 400.0 mg/kg/injection, schedule: Q01DX009 (ip), vehicle: saline with Tween-80
[25] = dose: 400.0 mg/kg/injection, schedule: Q04DX003 (ip), vehicle: saline with Tween-80

Structure (SMILES): CCOC(=O)C/C(C)=N/NC(=O)CC(=O)N/N=C(\C)CC(=O)OCC
- T/C (dose: 75.0 mg/kg/injection, schedule: Q01DX009 (ip), vehicle: saline): 109 % of control
- T/C (dose: 150.0 mg/kg/injection, schedule: Q01DX009 (ip), vehicle: saline): 105 % of control
- T/C (dose: 300.0 mg/kg/injection, schedule: Q01DX009 (ip), vehicle: saline): 103 % of control

Structure (SMILES): CC(=O)OC1C=COC(C)C1OC(C)=O (configuration not stated)
- T/C [1]: 98 % of control
- T/C [2]: 114 % of control
- T/C [3]: 100 % of control
- T/C [4]: 99 % of control
- T/C [5]: 100 % of control

Structure (SMILES): COc1ccc(OC)c(C(=O)CCCC(=O)O)c1
- T/C [6]: 100 % of control
- T/C [7]: 90 % of control
- T/C [8]: 100 % of control
- T/C [9]: 104 % of control
- T/C [10]: 90 % of control
- T/C [11]: 91 % of control
- T/C [12]: 95 % of control
- T/C (dose: 400.0 mg/kg/injection, schedule: Q01DX009 (ip), vehicle: Klucel (hydroxypropylcellulose) (HPC)): 95 % of control
- T/C [13]: 87 % of control

Structure (SMILES): N#C/C(=C1C=C(Br)/C(=N\O)C=C\1Cl)c1ccc(Cl)cc1
- T/C [14]: 115 % of control
- T/C [15]: 110 % of control
- T/C [7]: 115 % of control and 123 % of control
- T/C [8]: 100 % of control
- T/C (dose: 150.0 mg/kg/injection, schedule: Q01DX009 (ip), vehicle: Klucel (hydroxypropylcellulose) (HPC)): 109 % of control
- T/C [10]: 123 % of control
- T/C [11]: 118 % of control
- T/C (dose: 225.0 mg/kg/injection, schedule: Q01DX009 (ip), vehicle: Klucel (hydroxypropylcellulose) (HPC)): 109 % of control
- T/C [13]: 113 % of control

Structure (SMILES): O=C1C=CC(=O)c2c(Cl)ccc(O)c21
- T/C (dose: 0.63 mg/kg/injection, schedule: Q01DX009 (ip), vehicle: Klucel (hydroxypropylcellulose) (HPC)): 116 % of control

Structure (SMILES): COC12CC3(C)C(C4=CC(=O)OC4)CCC3(O)C3CCC4=CC(=O)CCC4(CO1)C32 (configuration not stated)
- T/C (dose: 56.0 mg/kg/injection, schedule: Q01DX010 (ip), vehicle: carboxymethylcellulose (CMC)): 95 % of control
- T/C (dose: 112.5 mg/kg/injection, schedule: Q01DX010 (ip), vehicle: carboxymethylcellulose (CMC)): 100 % of control
- T/C (dose: 225.0 mg/kg/injection, schedule: Q01DX010 (ip), vehicle: carboxymethylcellulose (CMC)): 90 % of control

Structure (SMILES): CCCCCCCCCCCCNC(=O)OCCN(CCOC(=O)NCCCCCCCCCCCC)C(=O)COc1ccc(Cl)cc1
- T/C (dose: 100.0 mg/kg/injection, schedule: Q04DX003 (ip), vehicle: other): 100 % of control
- T/C (dose: 200.0 mg/kg/injection, schedule: Q04DX003 (ip), vehicle: other): 100 % of control
- T/C (dose: 400.0 mg/kg/injection, schedule: Q04DX003 (ip), vehicle: other): 100 % of control

Structure (SMILES): CC(=Nc1ccccc1)C1=C(O)C(Cc2ccc(O)cc2)NC1=O (configuration not stated)
- T/C [16]: 110 % of control
- T/C [17]: 101 % of control

Structure (SMILES): CC(C)C(N)C(=O)NC(CO)C(=O)O (stereo not drawn) (H-Val-Ser-OH; configuration not given here)
- T/C (dose: 50.0 mg/kg/injection, schedule: Q01DX005 (ip), vehicle: saline): 99 % of control
- T/C (dose: 100.0 mg/kg/injection, schedule: Q01DX005 (ip), vehicle: saline): 106 % of control
- T/C (dose: 200.0 mg/kg/injection, schedule: Q01DX005 (ip), vehicle: saline): 92 % of control

Structure (SMILES): O=c1[nH]cc(CCCO)c(=O)[nH]1
- T/C [1]: 91 % of control
- T/C [2]: 102 % of control
- T/C [3]: 109 % of control
- T/C [18]: 100 % of control
- T/C [4]: 100 % of control
- T/C [19]: 100 % of control
- T/C [5]: 109 % of control

Structure (SMILES): CCCCOCN(CCCc1ccccc1)COCCCC
- T/C [17]: 121 % of control

Structure (SMILES): O=S(=O)(Nc1ccccn1)c1ccc(N(CCCl)CCCl)cc1
- T/C [16]: 100 % of control
- T/C [17]: 95 % of control
- T/C [20]: 90 % of control

Structure (SMILES): COc1ccc(/C=C/C2(O)N(C)C(=O)N(C)C(=O)N2C)cc1
- T/C [1]: 89 % of control
- T/C [2]: 99 % of control
- T/C [18]: 118 % of control

Structure (SMILES): NC(=S)NCCO
- T/C (dose: 100.0 mg/kg/injection, schedule: Q01DX001 (ip), vehicle: saline): 104 % of control
- T/C (dose: 200.0 mg/kg/injection, schedule: Q01DX001 (ip), vehicle: saline): 95 % of control
- T/C (dose: 400.0 mg/kg/injection, schedule: Q01DX001 (ip), vehicle: saline): 100 % of control

Structure (SMILES): Cc1nc(OCc2ccccc2)c(C(=O)OCc2ccccc2)nc1C
- T/C [21]: 100 % of control
- T/C [16]: 106 % of control and 121 % of control
- T/C [17]: 106 % of control and 108 % of control
- T/C [22]: 94 % of control
- T/C [20]: 100 % of control and 101 % of control
- T/C [23]: 91 % of control
- T/C [24]: 97 % of control and 124 % of control
- T/C [25]: 100 % of control
- T/C (dose: 500.0 mg/kg/injection, schedule: Q01DX009 (ip), vehicle: saline with Tween-80): 106 % of control

Structure (SMILES): BrCC12CCC1(CBr)COC2 (configuration not stated)
- T/C [6]: 107 % of control
- T/C [9]: 92 % of control
- T/C [12]: 100 % of control

Structure (SMILES): CCCCOC1OC[N+](C)(C)CC1(C)C (configuration not stated)
- T/C (dose: 25.0 mg/kg/injection, schedule: Q04DX003 (ip), vehicle: saline with Tween-80): 102 % of control
- T/C (dose: 50.0 mg/kg/injection, schedule: Q04DX003 (ip), vehicle: saline with Tween-80): 105 % of control
- T/C [22]: 100 % of control and 105 % of control

Structure (SMILES): CC(Sc1ncnc2nc[nH]c12)c1ccccc1 (configuration not stated)
- T/C (dose: 50.0 mg/kg/injection, schedule: Q04DX003 (ip), vehicle: Klucel (hydroxypropylcellulose) (HPC)): 100 % of control
- T/C [8]: 100 % of control
- T/C [11]: 110 % of control

Structure (SMILES): NC(=O)CC(N)C(=O)O (configuration not stated)
- T/C [18]: 100 % of control
- T/C (dose: 200.0 mg/kg/injection, schedule: Q01DX010 (ip), vehicle: other): 110 % of control
- T/C [19]: 100 % of control
- T/C (dose: 400.0 mg/kg/injection, schedule: Q01DX010 (ip), vehicle: other): 120 % of control
- T/C (dose: 400.0 mg/kg/injection, schedule: Q01DX010 (ip), vehicle: saline with Tween-80): 86 % of control
- T/C (dose: 800.0 mg/kg/injection, schedule: Q01DX009 (ip), vehicle: saline): 110 % of control
- T/C (dose: 800.0 mg/kg/injection, schedule: Q01DX010 (ip), vehicle: other): 100 % of control
- T/C (dose: 1600.0 mg/kg/injection, schedule: Q01DX009 (ip), vehicle: saline): 115 % of control
- T/C (dose: 1600.0 mg/kg/injection, schedule: Q01DX010 (ip), vehicle: other): 115 % of control
- T/C (dose: 1600.0 mg/kg/injection, schedule: Q01DX010 (ip), vehicle: saline with Tween-80): 150 % of control

Structure (SMILES): Cn1ncc2cncnc21
- T/C (dose: 100.0 mg/kg/injection, schedule: Q04DX003 (ip), vehicle: alcohol): 113 % of control
- T/C (dose: 200.0 mg/kg/injection, schedule: Q04DX003 (ip), vehicle: alcohol): 95 % of control
- T/C (dose: 400.0 mg/kg/injection, schedule: Q04DX003 (ip), vehicle: alcohol): 100 % of control

Structure (SMILES): O=C1C(Br)=Cc2cccc3cccc1c23
- T/C [21]: 111 % of control
- T/C [16]: 105 % of control
- T/C [17]: 107 % of control
- T/C [22]: 95 % of control
- T/C [20]: 230 % of control and 107 % of control
- T/C [23]: 104 % of control
- T/C [24]: 100 % of control
- T/C [25]: 104 % of control

Structure (SMILES): COc1cccc(C(=O)O)c1OS(=O)(=O)c1ccc(C)cc1
- T/C (dose: 25.0 mg/kg/injection, schedule: Q01DX009 (ip), vehicle: other): 108 % of control
- T/C (dose: 50.0 mg/kg/injection, schedule: Q01DX009 (ip), vehicle: other): 100 % of control
- T/C (dose: 100.0 mg/kg/injection, schedule: Q01DX009 (ip), vehicle: other): 100 % of control
- T/C (dose: 200.0 mg/kg/injection, schedule: Q01DX009 (ip), vehicle: other): 101 % of control
- T/C (dose: 400.0 mg/kg/injection, schedule: Q01DX009 (ip), vehicle: other): 103 % of control

Structure (SMILES): CCN(CC)c1ccc(C2NC(=O)c3ccccc3N2)cc1 (configuration not stated)
- T/C [14]: 110 % of control
- T/C [15]: 120 % of control
- T/C [7]: 95 % of control
